Values of other authors in patent US20060025476A1, “Use of methyl pyruvate for the purpose of reducing weight gain in mammals” (priority 2004, published 2006).
Like-named read-outs stand apart in the source and are kept apart here.

How the values were obtained:
PPARa/g = details: high-fat-fed rats
Na(+)-K(+)-ATPase = details: 10 microM
PPAR-alpha [1] = molecular target: T1, PPAR-alpha (Rattus norvegicus, UniProt P37230); parameters: from tissue; host or cells: rat gastrocnemius muscle, in vivo; details: gastrocnemius muscle, feeding
T1 sequence (P37230 1-468): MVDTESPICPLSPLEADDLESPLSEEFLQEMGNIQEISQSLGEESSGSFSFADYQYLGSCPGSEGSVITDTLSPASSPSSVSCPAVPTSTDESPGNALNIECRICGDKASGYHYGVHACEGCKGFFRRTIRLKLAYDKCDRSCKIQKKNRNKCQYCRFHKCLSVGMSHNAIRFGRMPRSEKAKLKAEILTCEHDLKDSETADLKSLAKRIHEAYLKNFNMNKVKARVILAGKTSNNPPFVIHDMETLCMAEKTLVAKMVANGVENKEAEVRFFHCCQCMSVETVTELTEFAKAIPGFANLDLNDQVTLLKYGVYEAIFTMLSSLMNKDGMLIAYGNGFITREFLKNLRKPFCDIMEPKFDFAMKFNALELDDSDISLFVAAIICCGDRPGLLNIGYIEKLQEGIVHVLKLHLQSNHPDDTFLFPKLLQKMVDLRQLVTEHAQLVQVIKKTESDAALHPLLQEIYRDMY

PPAR-alpha [2] = molecular target: T1, PPAR-alpha; parameters: from tissue; details: control and high-fat-fed rats
[3] = test system: porcine carotid artery strips
pancreatic islets = details: NAD(P)H imaging with LipDH autofluorescence
[4] = test system: isolated rat pancreatic islets; details: compared with pyruvate
[5] = test system: isolated rat pancreatic islets
K(ATP) channels = molecular target: T2, K(ATP) channels (Homo sapiens, UniProt Q09428+Q14654)
T2 construct: endogenous in cells; host or cells: pancreatic beta-cells
T2 sequence (Q14654 whole entry): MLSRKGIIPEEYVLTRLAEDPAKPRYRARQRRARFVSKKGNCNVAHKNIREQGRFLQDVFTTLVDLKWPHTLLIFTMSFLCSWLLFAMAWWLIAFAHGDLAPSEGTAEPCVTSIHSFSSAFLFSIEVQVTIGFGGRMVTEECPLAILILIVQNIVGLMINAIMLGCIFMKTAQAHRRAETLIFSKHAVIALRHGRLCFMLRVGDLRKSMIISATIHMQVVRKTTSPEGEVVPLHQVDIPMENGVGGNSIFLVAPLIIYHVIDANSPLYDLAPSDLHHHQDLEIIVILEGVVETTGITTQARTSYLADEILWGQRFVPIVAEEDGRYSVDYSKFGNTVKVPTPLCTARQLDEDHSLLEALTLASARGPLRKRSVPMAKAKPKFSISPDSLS
T2 sequence (Q09428 whole entry): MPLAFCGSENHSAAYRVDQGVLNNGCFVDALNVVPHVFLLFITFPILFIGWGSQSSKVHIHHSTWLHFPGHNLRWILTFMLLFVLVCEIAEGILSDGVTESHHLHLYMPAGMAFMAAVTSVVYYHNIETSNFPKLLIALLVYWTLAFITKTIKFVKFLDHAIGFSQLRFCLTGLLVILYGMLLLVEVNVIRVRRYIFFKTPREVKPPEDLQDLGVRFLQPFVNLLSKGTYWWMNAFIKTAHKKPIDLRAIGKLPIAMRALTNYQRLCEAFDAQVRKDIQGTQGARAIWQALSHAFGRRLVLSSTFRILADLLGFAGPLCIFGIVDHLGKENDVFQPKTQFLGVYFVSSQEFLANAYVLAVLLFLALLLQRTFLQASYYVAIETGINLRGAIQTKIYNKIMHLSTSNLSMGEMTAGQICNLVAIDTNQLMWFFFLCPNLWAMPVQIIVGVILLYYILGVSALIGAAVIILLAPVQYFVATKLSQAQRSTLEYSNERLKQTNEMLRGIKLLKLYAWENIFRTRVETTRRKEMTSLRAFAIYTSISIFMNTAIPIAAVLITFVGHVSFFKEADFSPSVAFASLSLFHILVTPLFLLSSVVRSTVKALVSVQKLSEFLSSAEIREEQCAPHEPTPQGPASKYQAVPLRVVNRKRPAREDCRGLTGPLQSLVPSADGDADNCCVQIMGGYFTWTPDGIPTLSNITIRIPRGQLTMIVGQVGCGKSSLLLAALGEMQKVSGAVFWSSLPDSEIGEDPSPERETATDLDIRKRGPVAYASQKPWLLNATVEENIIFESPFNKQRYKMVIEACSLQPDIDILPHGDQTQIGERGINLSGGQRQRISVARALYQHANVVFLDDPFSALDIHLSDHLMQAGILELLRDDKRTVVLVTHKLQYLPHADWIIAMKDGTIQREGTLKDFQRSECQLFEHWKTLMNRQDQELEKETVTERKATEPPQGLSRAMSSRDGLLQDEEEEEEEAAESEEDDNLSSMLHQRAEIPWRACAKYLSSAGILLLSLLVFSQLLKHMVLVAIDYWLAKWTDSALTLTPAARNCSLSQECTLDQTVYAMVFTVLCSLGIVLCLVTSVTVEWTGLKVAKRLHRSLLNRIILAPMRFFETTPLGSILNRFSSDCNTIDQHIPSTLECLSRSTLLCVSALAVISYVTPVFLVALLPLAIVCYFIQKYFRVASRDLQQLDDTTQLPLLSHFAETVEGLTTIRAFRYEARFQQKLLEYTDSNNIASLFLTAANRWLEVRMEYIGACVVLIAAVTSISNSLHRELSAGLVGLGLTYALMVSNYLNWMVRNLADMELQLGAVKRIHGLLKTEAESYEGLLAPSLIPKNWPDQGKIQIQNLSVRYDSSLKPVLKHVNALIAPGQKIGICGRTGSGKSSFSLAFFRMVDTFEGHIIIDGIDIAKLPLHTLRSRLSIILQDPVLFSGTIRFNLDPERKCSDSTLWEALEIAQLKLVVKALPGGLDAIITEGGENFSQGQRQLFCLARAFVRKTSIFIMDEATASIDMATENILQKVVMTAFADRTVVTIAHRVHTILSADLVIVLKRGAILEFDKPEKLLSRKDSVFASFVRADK

whole islets = details: 5 mM
pancreatic beta-cells [6] = test system: pancreatic beta-cells
[7] = test system: isolated beta-cell mitochondria; details: accumulation of ATP in medium, in combination with glutamate
pancreatic beta-cells [8] = test system: pancreatic beta-cells; remark: listed apart in the source
[9] = test system: Jurkat T-lymphocyte mitochondria
[10] = test system: fetal rat brown adipocyte primary cultures
porcine carotid arteries = details: added to amino-oxyacetic acid
[11] = test system: guinea-pig cerebral cortical synaptosomes
UCP-1 mRNA expression = details: 4-5 h, basal or rosiglitazone-treated cells

Structure (SMILES): CCO[C@@H](Cc1ccc(OCCc2ccc(OS(C)(=O)=O)cc2)cc1)C(=O)O [tesaglitazar]
- diglyceride and long chain acyl coenzyme A in skeletal muscle (PPARa/g): decreased
- hepatic triglyceride accumulation (PPARa/g): reduced
- glucose infusion rate during hyperinsulinemic-euglycemic clamp (PPARa/g; 7 d): increase

Structure (SMILES): C[C@@H]1O[C@@H](O[C@H]2C[C@@H](O)[C@]3(CO)[C@H]4[C@H](O)C[C@]5(C)[C@@H](C6=CC(=O)OC6)CC[C@]5(O)[C@@H]4CC[C@]3(O)C2)[C@H](O)[C@H](O)[C@H]1O [ouabain]
- glycolysis and lactate production (Na(+)-K(+)-ATPase): decreased

Structure (SMILES): Cc1cccc(Nc2cc(Cl)nc(SCC(=O)O)n2)c1C [WY14,643]
- pyruvate dehydrogenase kinase activity, PDK4 protein and PDK4 mRNA (PPAR-alpha [1]): large increases
- hepatic PDK4 protein (PPAR-alpha [2]): significantly increased

Structure (SMILES): [Cl-].[K+] [KCl]
- change in resting tone ([3]; 10 mM KCl, glucose-PSS): -0.8 ± 0.8 g
- change in resting tone (increased contraction) ([3]; 10 mM KCl, lactate-PSS): 1.5 ± 0.7 g
- change in resting tone ([3]; 10 mM KCl, pyruvate-PSS): -2.1 ± 0.8 g

Structure (SMILES): O=S(=O)(c1ccccc1)N(CC(F)(F)F)c1ccc(C(O)(C(F)(F)F)C(F)(F)F)cc1 [T0901317]
- suppressive effects of LXRs on PPARa-induced PPRE-luciferase activity (LXR): dose dependently enhanced

Structure (SMILES): CC(C)CC[C@@H](O)[C@@H](C)[C@H]1CC[C@H]2[C@@H]3CC=C4C[C@@H](O)CC[C@]4(C)[C@H]3CC[C@]12C [22 (R)-hydroxycholesterol]
- suppressive effects of LXRs on PPARa-induced PPRE-luciferase activity (LXR): dose dependently enhanced

Structure (SMILES): COC(=O)C(C)=O [methyl pyruvate]
- NADH and NADPH response (pancreatic islets): robust NADH and NADPH response
- efficiency in intramitochondrial metabolism (amino acid conversion, inhibition of glucose utilization, 14CO2 output) [4]: more efficient than pyruvate
- mitochondrial alkalinization [4]: more marked mitochondrial alkalinization than pyruvate
- insulin release ([5]; D-glucose 16.7 mM and/or methyl ester 20.0 mM): negative insulinotropic action
- insulin release ([5]; D-glucose 2.8 to 8.3 mM, ester not exceeding 10.0 mM): positive insulinotropic action
- block of KATP (K(ATP) channels): block
- single-channel currents (K(ATP) channels; inside-out patches): blocked
- K(ATP) current (K(ATP) channels; standard whole-cell configuration): inhibited
- ATP/ADP ratio in whole islets (whole islets): no effect
- increase in insulin secretion relative to that induced by glucose (pancreatic beta-cells [6]): 6 fold
- concentration of maximal effect on insulin secretion (pancreatic beta-cells [6]; absence of glucose): 5 mM
- ATP production with glutamate [7]: higher than that induced by pyruvate/glutamate
- ATP production or ATP/ADP ratio (pancreatic beta-cells [8]): did not influence
- NAD(P)H autofluorescence (pancreatic beta-cells [8]): slightly decreased
- [Ca2+]i (pancreatic beta-cells [8]): sustained rise
- depolarization of beta-cell membrane potential (pancreatic beta-cells [8]; 5-20 mM): depolarized the beta-cell in a concentration-dependent manner
- cytosolic free Ca(2+) concentration (pancreatic beta-cells [8]; after an initial decrease): increased
- electrical activity (pancreatic beta-cells [8]; presence of 0.5 mM glucose): elicited electrical activity
- cation current across the inner membrane of mitochondria [9]: directly inhibited

Structure (SMILES): CC1=C(/C=C/C(C)=C/C=C/C(C)=C/C(=O)O)C(C)(C)CCC1 [all-trans-retinoic acid]
- p44/p42 and p38 mitogen-activated protein kinase activation [10]: induce

Structure (SMILES): CCCCCCCC(=O)O [octanoate]
- adverse energetic effects of malate-aspartate shuttle inhibition (porcine carotid arteries): normalized

Structure (SMILES): CC(O)C(=O)O (stereo not drawn) [lactate]
- increase of O2 consumption ([3]; 10 mm in PSS): without effect

Structure (SMILES): NOCC(=O)O [amino-oxyacetic acid]
- negative shift in the cytosolic NAD+/NADH redox potential [11]: 26 mV

Structure (SMILES): CC1=C(/C=C/C(C)=C\C=C\C(C)=C\C(=O)O)C(C)(C)CCC1 [9-cis-retinoic acid]
- p44/p42 and p38 mitogen-activated protein kinase activation [10]: induce

Structure (SMILES): COc1cccc(-c2cc(=O)c3ccccc3o2)c1N [PD98059]
- negative effect of TNF-alpha on UCP-1 mRNA expression (UCP-1 mRNA expression): reversed
